US9321993B2, “Tissue culture method for producing cartilage using trimethylamine N-oxide and chondroitinase” (The Trustees of Columbia University in the City of New York, priority 2010, dated 2016)

Experiments:
[1] = tested on: Articular chondrocytes; test: Equilibrium Young's and dynamic modulus under 10% unconfined compression, Example 2; type: cell-based, bovine; conditions: for mechanical properties (Young's modulus) versus control group: day 28
Method: (§1) Articular chondrocytes were harvested from juvenile bovine wrist joints (2-4 weeks old), and digested for 8 hrs at 37° C. with Collagenase V (Sigma) to isolate chondrocytes. The cells were expanded for one passage in DMEM media containing 10% FBS, 1% PSAM, 5 ng/ml bFGF, 10 ng/ml PDGF, and 1 ng/ml of TGF-b1 (plating density=180 cells/cm^2) (see Ng et al. 2010 Tissue Eng Part A 16(3), 1041-1051). The passaged cells were seeded in 2% w/v agarose hydrogel scaffold (Type VII, Sigma Inc.) at a concentration of 30M cells/ml. Samples were cored (diameter=4 mm, thickness=2.34 mm) and cultured in chondrogenically-defined media (CM: DMEM with 0.1 uM dexamethasone, 40 mg/mL L-proline, 50 mg/mL ascorbate 2-phosphate, […] sodium pyruvate, 1×ITS+premix, 100 U/ml penicillin, and […] streptomycin and amphotericin B) supplemented with TGF-β3 for the first 14 days. Constructs grown without TMAO served as control.
(§2) Six culture medias were evaluated, with serum free media containing ascorbic acid and 10 ng/ml of TGF-b3 for the first 14 days used as the control (see Lima et al. 2007 Osteoarthritis Cartilage 15(9), 1025-1033). TMAO was added to the media at concentrations of 55 mM and 180 mM, and urea was added to the media at concentrations of 90 mM and 360 mM. The final group included a combination (combo) of TMAO (180 mM) and urea (360 mM).
(§3) The equilibrium Young's (Eγ) and dynamic modulus was determined under 10% unconfined compression. Biochemical analysis was performed to determine the GAG, hydroxyproline (OHP) and DNA content. GAG and OHP values were normalized to the DNA content and wet weight. Tested samples were fixed for histology and stained with Picosirius Red and Safranin-O to determine the distribution of collagen and GAG, respectively. Mechanical, biochemical and histological analysis was performed every two weeks (n=4/5). A two-way ANOVA (factors: culture day and treatment) was performed to evaluate the treatment for mechanical and biochemical analysis with a Bonferroni post hoc analysis.

[2] = tested on: Articular chondrocytes; test: Equilibrium modulus of constructs digested with chondroitinase ABC, then cultured with CM or TMAO, Example 4; type: cell-based, bovine
Method: as §1, §3
(§4) Methods are according to Example 2 unless otherwise indicated.
Mature constructs were enzymatically digested for 48 hours at day 14 with 0.15 U/mL of chondroitinase ABC (chABC), which degrades proteoglycans, then cultured with CM or CM supplemented with 5 mM of TMAO. […] Following the digestion, constructs were cultured in either CM or CM supplemented with 5 mM TMAO. A Student's t-test was performed to compare properties of the constructs cultured in CM or CM supplemented with TMAO. Significance was set at ? =0.05.

[3] = tested on: Articular chondrocytes; test: Biochemical content of constructs digested with chondroitinase ABC, then cultured with CM or TMAO, Example 4; type: cell-based, bovine
Method: as §1
(§5) The equilibrium Young's (Eγ) and dynamic modulus was determined under 10% unconfined compression. Biochemical analysis was performed to determine the GAG, hydroxyproline (OHP) and DNA content. GAG and OHP values were normalized to the DNA content and wet weight. Tested samples were fixed for histology and stained with Picosirius Red and Safranin-O to determine the distribution of collagen and GAG, respectively. […]

[4] = tested on: Articular chondrocytes; test: Biochemical analysis (GAG, OHP) and histology of constructs, Example 2; type: cell-based, bovine
Method: as §1, §2, §3

[5] = tested on: Immature bovine chondrocytes; test: Stiffness (Young's modulus) of engineered constructs cultured with supplemented media, Example 1; type: cell-based; conditions: TMAO 180 or 55 mM from day 0; day 28 of culture
Method: Immature bovine chondrocytes were enzymatically isolated and encapsulated in 2% w/v type VII agarose (Sigma). Engineered cylindrical constructs were cultured in serum-free chondrogenic media (ITS+, ascorbic acid, dexamethasone, pen/strep) and transforming growth factor beta-3 (TGFβ3) for the first 14 days.
The culture media of some constructs were supplemented from day 0 with TMAO (180 or 55 mM), urea (360 or 90 mM) or TMAO+urea (combo: 360 mM urea and 180 mM TMAO which is the physiological ratio found in shark tissue).

[6] = tested on: nucleus pulposus (spine tissue) cells; test: GAG and OHP (collagen) content of nucleus pulposus micropellets, Example 5; type: cell-based
Method: as §3, §4
Micropellets (scaffold-free constructs comprised of aggregated cells only) consisting of nucleus pulposus (spine tissue) cells were cultured for […]. The media was supplement with either 5 mM or 50 mM TMAO. Micropellets cultured in CM were used as the control. Micropellets were cultured for 6 weeks and analyzed for biochemistry (i.e. GAG, DNA and OHP contents).

[7] = tested on: Articular chondrocytes; test: Young's and dynamic modulus after transient application of TMAO, Example 3; type: cell-based, bovine; conditions: 50 mM TMAO for the first 14 days (transient); day 42
Method: as §1, §5

[8] = tested on: Articular chondrocytes; test: GAG and OHP content after transient application of TMAO, Example 3; type: cell-based, bovine
Method: as §1, §3
Culture media was supplemented with 0 mM, 5 mM, 50 mM, 100 mM or 200 mM of TMAO for the first 14 days of culture (transient application).
Methods are according to Example 2 unless otherwise indicated. Statistical analysis included a two-way ANOVA (factors: time & concentration) with a Bonferonni post-hoc test.

[9] = 5 mM TMAO after chABC digestion, by day 28, persisted to day 42
[10] = high concentration of urea (360 mM)
[11] = lower concentrations of urea (90 mM)

For C[N+](C)(C)[O-] [TMAO, Trimethylamine N-oxide], the “mechanical properties (Young's modulus) versus control group” value ([1]; 55 mM TMAO) was 2 ×, the “mechanical properties (Young's modulus) versus control group” value ([1]; 180 mM TMAO) was 2 × and the “mechanical properties relative to CM alone” value [2, 9] was “significantly greater”. The “recovery of the mechanical properties” value ([2]; TMAO supplement following the chABC digestion, compared to the control) was “quicker recovery”, the “EY (equilibrium Young's modulus)” value ([2]; day 42, CM with 5 mM TMAO after chABC digestion, CM group 115.6±38.1 kPa) was 235.6±75.8 kPa and the “biochemical properties relative to CM alone” value [3, 9] was “significantly greater”. The “collagen content compared to the control” value ([3]; TMAO supplement following the chABC digestion) was “increases the collagen content”, the “normalized GAG content versus control” value ([4]; 55 mM TMAO, day 28) was “significantly greater than control” and the “normalized collagen content versus control” value ([4]; 55 mM TMAO, day 28) was “significantly greater than control”. The “histology: distribution of GAG and collagen throughout the thickness of the construct” value ([4]; 55 mM TMAO, day 28, Picosirius Red and Safranin-O) was “even distribution”, the “Young's modulus (stiffness) versus control group” value [5] was “two-fold” and the “GAG production of the micropellets” value ([6]; 5 mM or 50 mM TMAO, normalized by DNA content at day 42 (FIG. 9A)) was “graded effect”. For the same molecule, the “increase in collagen production” value ([6]; CM supplemented with TMAO (5 mM or 50 mM), normalized by DNA content at day 42 (FIG. 9B)) was 50%, the “Young's modulus versus control group” value [7] was “significantly greater than the control group” and the “dynamic modulus versus control group” value [7] was “significantly greater than the control group”. The “OHP content greater than the control values” ([8]; 100 mM TMAO, day 28) was “approximately 50%”, the “GAG content (normalized to wet weight) greater than control values” ([8]; TMAO 5 mM, 50 mM and 100 mM, day 42) was “up to 17%” and the “OHP content (normalized to the wet weight) versus control” value ([8]; TMAO groups, day 28, reaching significance for 50 mM and 100 mM) was “greater than the control”.

For NC(N)=O [urea, reference compound], the “mechanical properties versus day 0” value [1, 10] was “did not increase from day 0”, the “effect on mechanical properties” value [1, 11] was “did not have adverse effects” and the “biochemical properties versus day 0” value [4, 10] was “did not increase from day 0”. For the same molecule, the “effect on biochemical properties” value [4, 11] was “did not have adverse effects”.
